Measurements: ChEMBL document CHEMBL3132769, “Fragment growing to retain or alter the selectivity of anchored kinase hinge-binding fragments” (Medchemcomm, 2014)

What was measured:
[1] = system: Fibroblast growth factor receptor 2 (Homo sapiens), P21802 [N549H]; test: Inhibition of human FGFR2 N549H mutant catalytic domain expressed in baculovirus assessed as substrate phosphorylation using fluorescence-labelled peptides as substrate at 0.2 uM after 90 mins by microfluidic peptide phosphorylation assay
[2] = biological target: Insulin receptor (Homo sapiens) (UniProt P06213); test: Inhibition of human INSR catalytic domain expressed in baculovirus assessed as substrate phosphorylation using fluorescence-labelled peptides as substrate at 0.2 uM after 90 mins by microfluidic peptide phosphorylation assay
[3] = biological target: Aurora kinase B (Homo sapiens) (UniProt Q96GD4); test: Inhibition of human full length AurB expressed in baculovirus assessed as substrate phosphorylation using fluorescence-labelled peptides as substrate at 0.2 uM after 90 mins by microfluidic peptide phosphorylation assay
[4] = biological target: MAP kinase p38 (Homo sapiens) (UniProt O15264+Q15759+Q16539+P53778); test: Inhibition of human full length p38 beta2 expressed in Escherichia coli cell assessed as substrate phosphorylation using fluorescence-labelled peptides as substrate at 9 uM after 90 mins by microfluidic peptide phosphorylation assay
[5] = biological target: Protein kinase C gamma type (Homo sapiens) (UniProt P05129); test: Inhibition of human truncated PKC gamma expressed in baculovirus assessed as substrate phosphorylation using fluorescence-labelled peptides as substrate at 9 uM after 90 mins by microfluidic peptide phosphorylation assay
[6] = biological target: Protein kinase C beta type (Homo sapiens) (UniProt P05771); test: Inhibition of human full length PKC beta2 expressed in baculovirus assessed as substrate phosphorylation using fluorescence-labelled peptides as substrate at 9 uM after 90 mins by microfluidic peptide phosphorylation assay
[7] = biological target: MAP/microtubule affinity-regulating kinase 3 (Homo sapiens) (UniProt P27448); test: Inhibition of human full length c-TAK1 expressed in Escherichia coli cell assessed as substrate phosphorylation using fluorescence-labelled peptides as substrate at 2 uM after 90 mins by microfluidic peptide phosphorylation assay
[8] = biological target: T1, Serine/threonine-protein kinase Sgk1 (Homo sapiens) (UniProt O00141); test: Inhibition of human truncated SGK1 expressed in baculovirus assessed as substrate phosphorylation using fluorescence-labelled peptides as substrate at 2 uM after 90 mins by microfluidic peptide phosphorylation assay
T1 sequence (whole entry): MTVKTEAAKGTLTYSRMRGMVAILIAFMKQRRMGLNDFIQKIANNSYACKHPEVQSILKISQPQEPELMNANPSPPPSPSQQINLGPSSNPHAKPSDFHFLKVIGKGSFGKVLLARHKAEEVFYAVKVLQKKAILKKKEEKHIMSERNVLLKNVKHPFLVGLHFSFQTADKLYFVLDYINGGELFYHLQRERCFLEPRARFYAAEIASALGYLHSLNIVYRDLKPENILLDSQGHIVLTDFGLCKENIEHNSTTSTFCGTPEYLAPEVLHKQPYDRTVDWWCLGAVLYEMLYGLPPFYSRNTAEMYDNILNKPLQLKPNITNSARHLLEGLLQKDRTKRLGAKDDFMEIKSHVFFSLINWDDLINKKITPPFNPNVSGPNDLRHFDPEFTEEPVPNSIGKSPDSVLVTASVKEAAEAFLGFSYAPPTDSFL

[9] = biological target: Ribosomal protein S6 kinase alpha-5 (Homo sapiens) (UniProt O75582); test: Inhibition of human full length MSK1 expressed in baculovirus assessed as substrate phosphorylation using fluorescence-labelled peptides as substrate at 0.1 uM after 90 mins by microfluidic peptide phosphorylation assay
[10] = biological target: Glycogen synthase kinase-3 beta (Homo sapiens) (UniProt P49841); conditions: 0.1 uM
Description: Inhibition of human full length GSK-3 beta expressed in baculovirus assessed as substrate phosphorylation using fluorescence-labelled peptides as substrate at 0.1 uM after 90 mins by microfluidic peptide phosphorylation assay

[11] = biological target: MAP/microtubule affinity-regulating kinase 3 (Homo sapiens) (UniProt P27448); test: Inhibition of human full length c-TAK1 expressed in Escherichia coli cell assessed as substrate phosphorylation using fluorescence-labelled peptides as substrate at 95 uM after 90 mins by microfluidic peptide phosphorylation assay
[12] = biological target: Protein kinase C beta type (Homo sapiens) (UniProt P05771); test: Inhibition of human truncated PKC beta1 expressed in baculovirus assessed as substrate phosphorylation using fluorescence-labelled peptides as substrate at […] after 90 mins by microfluidic peptide phosphorylation assay
[13] = biological target: Mitogen-activated protein kinase 14 (Homo sapiens) (UniProt Q16539); test: Inhibition of human truncated p38 alpha expressed in Escherichia coli cell assessed as substrate phosphorylation using fluorescence-labelled peptides as substrate at 0.06 uM after 90 mins by microfluidic peptide phosphorylation assay
[14] = biological target: Mitogen-activated protein kinase 14 (Homo sapiens) (UniProt Q16539); test: Inhibition of human truncated p38 alpha expressed in Escherichia coli cell assessed as substrate phosphorylation using fluorescence-labelled peptides as substrate at 8 uM after 90 mins by microfluidic peptide phosphorylation assay
[15] = biological target: T2, Serine/threonine-protein kinase BRSK2 (Homo sapiens) (UniProt Q8IWQ3); test: Inhibition of human truncated BRSK2 expressed in baculovirus assessed as substrate phosphorylation using fluorescence-labelled peptides as substrate at 8 uM after 90 mins by microfluidic peptide phosphorylation assay
T2 sequence (whole entry): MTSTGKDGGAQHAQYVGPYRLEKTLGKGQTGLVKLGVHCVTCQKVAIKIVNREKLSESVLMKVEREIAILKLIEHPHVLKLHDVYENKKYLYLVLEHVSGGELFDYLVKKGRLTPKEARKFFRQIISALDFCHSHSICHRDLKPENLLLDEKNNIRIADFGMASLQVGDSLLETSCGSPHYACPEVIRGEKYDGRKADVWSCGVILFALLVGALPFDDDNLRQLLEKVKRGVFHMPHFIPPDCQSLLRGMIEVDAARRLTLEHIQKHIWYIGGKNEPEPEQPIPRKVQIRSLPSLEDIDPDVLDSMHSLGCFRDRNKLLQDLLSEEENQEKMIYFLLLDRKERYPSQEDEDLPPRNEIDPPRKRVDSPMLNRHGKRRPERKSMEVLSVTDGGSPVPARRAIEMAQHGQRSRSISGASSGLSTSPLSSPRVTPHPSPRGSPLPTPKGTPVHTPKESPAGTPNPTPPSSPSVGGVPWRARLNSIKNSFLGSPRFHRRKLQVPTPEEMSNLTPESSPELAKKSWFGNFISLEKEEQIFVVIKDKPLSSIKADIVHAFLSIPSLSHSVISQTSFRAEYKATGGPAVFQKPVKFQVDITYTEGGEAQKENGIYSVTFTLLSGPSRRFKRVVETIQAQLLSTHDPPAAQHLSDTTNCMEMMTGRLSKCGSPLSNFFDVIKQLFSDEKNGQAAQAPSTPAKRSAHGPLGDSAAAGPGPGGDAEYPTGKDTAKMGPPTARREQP

[16] = biological target: Fibroblast growth factor receptor 4 (Homo sapiens) (UniProt P22455); test: Inhibition of human FGFR4 catalytic domain expressed in baculovirus assessed as substrate phosphorylation using fluorescence-labelled peptides as substrate at 8 uM after 90 mins by microfluidic peptide phosphorylation assay
[17] = biological target: Hepatocyte growth factor receptor (Homo sapiens) (UniProt P08581); test: Inhibition of human MET cytoplasmic domain expressed in baculovirus assessed as substrate phosphorylation using fluorescence-labelled peptides as substrate at 70 uM after 90 mins by microfluidic peptide phosphorylation assay
[18] = biological target: RAC-alpha serine/threonine-protein kinase (Homo sapiens) (UniProt P31749); conditions: 1000 uM
RAC-alpha serine/threonine-protein kinase (Homo sapiens), sequence (P31749 whole entry): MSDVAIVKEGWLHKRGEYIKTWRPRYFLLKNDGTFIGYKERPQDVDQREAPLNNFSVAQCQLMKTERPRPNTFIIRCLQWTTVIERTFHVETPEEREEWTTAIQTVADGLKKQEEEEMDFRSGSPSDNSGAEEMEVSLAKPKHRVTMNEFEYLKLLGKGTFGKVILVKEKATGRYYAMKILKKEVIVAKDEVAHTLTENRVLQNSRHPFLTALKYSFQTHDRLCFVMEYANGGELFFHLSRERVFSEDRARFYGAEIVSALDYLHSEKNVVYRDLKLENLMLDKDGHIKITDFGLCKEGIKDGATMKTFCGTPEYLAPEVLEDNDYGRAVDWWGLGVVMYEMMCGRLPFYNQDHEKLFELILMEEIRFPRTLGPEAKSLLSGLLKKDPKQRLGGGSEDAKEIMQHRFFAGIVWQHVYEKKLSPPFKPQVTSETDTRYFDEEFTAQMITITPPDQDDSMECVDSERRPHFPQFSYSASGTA
Description: Inhibition of human AKT1 catalytic domain expressed in baculovirus assessed as substrate phosphorylation using fluorescence-labelled peptides as substrate at 1000 uM after 90 mins by microfluidic peptide phosphorylation assay

Protein kinase C beta type (Homo sapiens), sequence (P05771 2-671 limits assumed): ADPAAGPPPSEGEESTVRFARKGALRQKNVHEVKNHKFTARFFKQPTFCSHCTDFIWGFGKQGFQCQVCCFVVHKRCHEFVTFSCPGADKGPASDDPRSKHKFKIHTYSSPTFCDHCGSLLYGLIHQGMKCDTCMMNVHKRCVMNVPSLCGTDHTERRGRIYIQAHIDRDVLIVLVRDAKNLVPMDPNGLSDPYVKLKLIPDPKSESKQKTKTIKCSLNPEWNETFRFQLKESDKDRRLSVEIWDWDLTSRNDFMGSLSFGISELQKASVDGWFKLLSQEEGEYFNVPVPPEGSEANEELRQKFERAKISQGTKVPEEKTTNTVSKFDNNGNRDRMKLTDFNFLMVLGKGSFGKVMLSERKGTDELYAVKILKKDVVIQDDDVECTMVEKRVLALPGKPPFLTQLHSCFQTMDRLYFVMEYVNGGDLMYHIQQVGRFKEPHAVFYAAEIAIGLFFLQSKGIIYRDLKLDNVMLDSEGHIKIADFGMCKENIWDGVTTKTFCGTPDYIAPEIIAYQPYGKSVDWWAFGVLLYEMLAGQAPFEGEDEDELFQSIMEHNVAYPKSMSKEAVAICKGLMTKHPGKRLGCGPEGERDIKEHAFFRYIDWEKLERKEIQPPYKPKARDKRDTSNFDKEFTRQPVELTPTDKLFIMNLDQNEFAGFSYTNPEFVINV
Mitogen-activated protein kinase 14 (Homo sapiens), sequence (Q16539 whole entry, the tested form may be a part): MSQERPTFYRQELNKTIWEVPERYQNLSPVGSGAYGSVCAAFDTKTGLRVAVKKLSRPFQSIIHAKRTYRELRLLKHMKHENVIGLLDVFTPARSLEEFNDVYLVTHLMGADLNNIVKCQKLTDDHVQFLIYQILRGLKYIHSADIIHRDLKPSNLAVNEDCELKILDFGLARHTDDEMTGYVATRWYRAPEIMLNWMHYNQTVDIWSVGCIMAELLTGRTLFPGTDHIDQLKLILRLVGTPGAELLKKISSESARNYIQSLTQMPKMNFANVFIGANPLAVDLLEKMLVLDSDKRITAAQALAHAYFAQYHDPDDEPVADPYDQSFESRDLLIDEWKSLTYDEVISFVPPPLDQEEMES
MAP/microtubule affinity-regulating kinase 3 (Homo sapiens), sequence (P27448 whole entry, looked up, the tested form may be a part): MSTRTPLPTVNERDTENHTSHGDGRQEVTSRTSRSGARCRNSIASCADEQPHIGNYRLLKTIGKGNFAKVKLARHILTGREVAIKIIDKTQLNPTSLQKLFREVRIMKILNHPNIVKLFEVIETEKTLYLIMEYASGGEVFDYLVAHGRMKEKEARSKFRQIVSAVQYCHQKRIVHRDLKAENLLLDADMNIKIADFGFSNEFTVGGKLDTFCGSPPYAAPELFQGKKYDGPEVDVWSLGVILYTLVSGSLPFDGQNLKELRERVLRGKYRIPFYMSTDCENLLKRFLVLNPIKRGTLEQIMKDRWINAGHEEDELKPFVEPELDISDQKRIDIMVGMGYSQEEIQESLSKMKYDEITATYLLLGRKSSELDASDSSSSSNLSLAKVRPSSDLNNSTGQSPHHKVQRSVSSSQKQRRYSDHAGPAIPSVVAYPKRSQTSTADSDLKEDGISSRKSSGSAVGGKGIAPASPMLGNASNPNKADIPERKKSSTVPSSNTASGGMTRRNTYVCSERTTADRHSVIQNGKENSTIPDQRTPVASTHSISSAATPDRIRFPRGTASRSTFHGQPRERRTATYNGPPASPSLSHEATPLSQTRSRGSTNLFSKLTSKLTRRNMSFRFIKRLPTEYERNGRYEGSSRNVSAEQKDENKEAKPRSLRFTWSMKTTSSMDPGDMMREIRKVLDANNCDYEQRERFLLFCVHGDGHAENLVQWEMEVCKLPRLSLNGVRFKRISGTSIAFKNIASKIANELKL
Fibroblast growth factor receptor 2 (Homo sapiens), P21802 [N549H], sequence (P21802 whole entry N549H, the tested form may be a part): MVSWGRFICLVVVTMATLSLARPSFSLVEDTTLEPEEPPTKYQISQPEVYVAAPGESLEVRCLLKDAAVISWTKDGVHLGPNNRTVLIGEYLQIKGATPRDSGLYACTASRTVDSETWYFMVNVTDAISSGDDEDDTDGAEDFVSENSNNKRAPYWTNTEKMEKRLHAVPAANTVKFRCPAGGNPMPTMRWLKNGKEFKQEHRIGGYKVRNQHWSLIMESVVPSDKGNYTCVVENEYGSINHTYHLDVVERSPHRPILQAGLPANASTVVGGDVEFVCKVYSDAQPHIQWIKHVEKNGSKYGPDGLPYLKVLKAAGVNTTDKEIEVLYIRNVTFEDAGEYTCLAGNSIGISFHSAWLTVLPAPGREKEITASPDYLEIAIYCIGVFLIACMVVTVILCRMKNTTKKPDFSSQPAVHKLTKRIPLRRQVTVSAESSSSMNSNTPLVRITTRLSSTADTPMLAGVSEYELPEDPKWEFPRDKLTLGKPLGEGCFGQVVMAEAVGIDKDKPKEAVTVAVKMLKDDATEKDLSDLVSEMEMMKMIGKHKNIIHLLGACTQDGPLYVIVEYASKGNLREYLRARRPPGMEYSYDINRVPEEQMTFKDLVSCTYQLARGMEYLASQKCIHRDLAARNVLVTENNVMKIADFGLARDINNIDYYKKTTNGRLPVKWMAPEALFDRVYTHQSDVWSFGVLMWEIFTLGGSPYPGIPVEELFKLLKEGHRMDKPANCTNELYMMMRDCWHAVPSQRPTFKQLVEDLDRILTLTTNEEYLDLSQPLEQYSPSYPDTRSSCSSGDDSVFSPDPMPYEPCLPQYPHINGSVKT
Ribosomal protein S6 kinase alpha-5 (Homo sapiens), sequence (O75582 whole entry, looked up): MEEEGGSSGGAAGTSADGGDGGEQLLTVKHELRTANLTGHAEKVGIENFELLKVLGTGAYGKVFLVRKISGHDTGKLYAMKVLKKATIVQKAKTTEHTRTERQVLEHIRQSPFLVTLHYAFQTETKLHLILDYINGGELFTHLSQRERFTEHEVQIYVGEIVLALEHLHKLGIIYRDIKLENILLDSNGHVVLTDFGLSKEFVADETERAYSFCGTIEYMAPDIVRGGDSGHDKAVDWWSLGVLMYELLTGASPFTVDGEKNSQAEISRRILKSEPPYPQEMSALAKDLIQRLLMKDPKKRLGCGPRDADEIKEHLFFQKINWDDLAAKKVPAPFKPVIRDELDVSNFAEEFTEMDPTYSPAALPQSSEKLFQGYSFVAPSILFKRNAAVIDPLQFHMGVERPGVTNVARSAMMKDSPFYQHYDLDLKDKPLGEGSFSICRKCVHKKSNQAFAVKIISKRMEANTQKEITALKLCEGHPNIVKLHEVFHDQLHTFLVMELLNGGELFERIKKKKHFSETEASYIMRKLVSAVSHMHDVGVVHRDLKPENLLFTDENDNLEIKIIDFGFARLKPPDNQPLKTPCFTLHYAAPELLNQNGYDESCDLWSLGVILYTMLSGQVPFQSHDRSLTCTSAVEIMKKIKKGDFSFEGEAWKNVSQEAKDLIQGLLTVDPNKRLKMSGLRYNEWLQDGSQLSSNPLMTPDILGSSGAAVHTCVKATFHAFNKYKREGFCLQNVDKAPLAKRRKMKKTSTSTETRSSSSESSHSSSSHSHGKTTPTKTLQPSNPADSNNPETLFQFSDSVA
Fibroblast growth factor receptor 4 (Homo sapiens), sequence (P22455 22-802 limits assumed): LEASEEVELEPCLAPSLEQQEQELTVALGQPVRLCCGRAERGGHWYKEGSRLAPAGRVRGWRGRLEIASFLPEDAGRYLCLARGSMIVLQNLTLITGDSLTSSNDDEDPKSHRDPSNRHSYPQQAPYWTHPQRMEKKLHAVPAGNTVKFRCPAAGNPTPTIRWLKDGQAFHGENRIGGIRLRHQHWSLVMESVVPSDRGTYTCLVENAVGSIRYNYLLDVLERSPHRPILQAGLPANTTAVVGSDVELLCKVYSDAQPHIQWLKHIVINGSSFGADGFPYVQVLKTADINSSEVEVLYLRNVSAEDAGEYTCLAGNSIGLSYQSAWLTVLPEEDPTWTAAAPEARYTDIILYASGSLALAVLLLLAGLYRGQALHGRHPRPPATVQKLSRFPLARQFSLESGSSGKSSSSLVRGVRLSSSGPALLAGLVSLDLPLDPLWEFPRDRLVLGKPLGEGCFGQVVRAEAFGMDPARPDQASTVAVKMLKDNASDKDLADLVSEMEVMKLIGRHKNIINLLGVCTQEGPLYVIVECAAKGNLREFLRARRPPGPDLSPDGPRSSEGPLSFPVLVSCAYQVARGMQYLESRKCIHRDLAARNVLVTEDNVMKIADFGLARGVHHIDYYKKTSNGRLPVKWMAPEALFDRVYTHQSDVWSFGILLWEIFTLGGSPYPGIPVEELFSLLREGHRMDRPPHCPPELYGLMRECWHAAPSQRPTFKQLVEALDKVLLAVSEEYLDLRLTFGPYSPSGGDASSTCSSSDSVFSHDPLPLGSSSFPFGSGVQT
Aurora kinase B (Homo sapiens), sequence (Q96GD4 whole entry): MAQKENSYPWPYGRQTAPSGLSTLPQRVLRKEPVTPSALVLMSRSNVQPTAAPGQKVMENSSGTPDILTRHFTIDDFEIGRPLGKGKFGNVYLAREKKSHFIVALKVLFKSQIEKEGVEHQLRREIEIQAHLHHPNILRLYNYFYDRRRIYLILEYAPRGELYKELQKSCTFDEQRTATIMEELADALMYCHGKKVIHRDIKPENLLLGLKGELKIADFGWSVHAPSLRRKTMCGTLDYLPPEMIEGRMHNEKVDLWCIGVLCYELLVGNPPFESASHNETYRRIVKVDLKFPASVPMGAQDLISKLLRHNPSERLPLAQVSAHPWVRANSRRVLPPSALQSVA

Clc1ccc(C2(c3ccc(-c4ncnc5[nH]cnc45)cc3)CCNCC2)cc1 was tested, and the inhibition [1] was 7%, the inhibition [2] was 11% and the inhibition [3] was 87.5%.
Work on NCC1CN(c2ncnc3[nH]c4cnccc4c23)CCO1 (stereo not drawn) yielded an inhibition [4] of 0%, an inhibition [5] of 34.5% and an inhibition [6] of 23.5%.
NC1CCN(c2ncnc3[nH]ccc23)CC1 was tested, and the inhibition [7] was 3% and the inhibition [8] was 27%.
C[C@H](CN(C)C)Oc1nc(Nc2cc3cccc(Cl)c3cn2)cnc1C#N was tested, and the inhibition [9] was 0.5% and the inhibition [10] was 0%.
For NCCc1ccc(-c2ncnc3[nH]cnc23)cc1, the inhibition [11] was 18%.
Compound COC(=O)c1cnc(Nc2cnc(C#N)cn2)cc1NCC1CCNCC1 has an inhibition [12] of 2%.
Work on NC1(Cc2ccc(Cl)cc2)CCN(c2ncnc3[nH]ccc23)CC1 yielded an inhibition [13] of 0%.
NCC1CCN(c2ncnc3[nH]ccc23)CC1 gave an inhibition [14] of 7%, an inhibition [15] of 56.5% and an inhibition [16] of 27.5%.
CNCc1ccc(-c2ncnc3[nH]cnc23)cc1 was tested, and the inhibition [17] was 0%.
c1cnc2[nH]ccc2c1 showed an inhibition [18] of 65.5%.
